The structures appear in SMILES notation.

For experiment [1] the following is noted: fructose-loaded rats, oral once a day for 21 days, pitavastatin 10 mg/kg, amlodipine 15 mg/kg; for plasma insulin level compared with the control group (FIG. 2): Dunnett's test, combination p<0.05.
The conditions of experiment [2]: fructose-loaded rats, oral once a day for 21 days, pitavastatin 10 mg/kg, amlodipine 15 mg/kg; for plasma triglyceride level compared with the control group (FIG. 1): Dunnett's test, combination p<0.01.
[3] abbreviates: blood 22 hours after final administration.

For `CCOC(=O)C1=C(COCCN)NC(C)=C(C(=O)OC)C1c1ccccc1Cl` (stereo not drawn) [amlodipine, amlodipine besylate], the “plasma insulin level compared with the control group (FIG. 2)” value in experiment [1] is reported as “not significantly changed as compared with the control group”. Further, in experiment [2], the “plasma triglyceride level compared with the control group (FIG. 1)” value is listed as “almost equivalent to those of the control group”.

As for `O=C([O-])C[C@H](O)C[C@H](O)/C=C/c1c(C2CC2)nc2ccccc2c1-c1ccc(F)cc1.O=C([O-])C[C@H](O)C[C@H](O)/C=C/c1c(C2CC2)nc2ccccc2c1-c1ccc(F)cc1.[Ca+2]` [pitavastatin, Pitavastatin calcium], the “plasma insulin level compared with the control group (FIG. 2)” value in experiment [1] is given as “not significantly changed as compared with the control group”. Also, the “relative plasma insulin level (based on the control group)” value in experiment [1] (setting [3]) was found to be 0.971. Further, in experiment [2], the “plasma triglyceride level compared with the control group (FIG. 1)” value is reported as “almost equivalent to those of the control group”. In addition, the “relative plasma triglyceride level (based on the control group)” value in experiment [2] (setting [3]) is given as 0.966.

Source of the values: patent publication US8604054B2, “Triglyceride-lowering agent and hyperinsulinism-ameliorating agent” (Kowa Co., Ltd., priority 2006, dated 2013).
